DC50 and Dmax data for twelve compounds are collected here from patent US12539292B2, “BRM targeting compounds and associated methods of use” (Arvinas Operations, Inc., priority 2018, dated 2026).

The test deals with T1, BRM (Homo sapiens, UniProt P51531).
T1 construct: In-Cell Western Screen of BRM Degradation in SW1573 Cells; endogenous in cells; host or cells: SW1573
Put plainly: In-cell Western screen of BRM degradation in SW1573 cells (Dmax and DC50). The class given is cell-based. Summed up:
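Adherent SW1573 cultures exposed to test compounds for 18-20 h were processed for in-cell Western after PFA fixation and detergent permeabilization. BRM degradation was reported as Dmax and DC50.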

The mark [1] stands for this setting: BRM degradation, SW1573 cells, read-out: DC50.
Setting [2] is: BRM degradation, SW1573 cells, tested at the top concentration of between 0.3 and 10 μM, read-out: Dmax (%) (% degraded).
Setting [3] is: degradation of BRM, read-out: BRM DC50.
The mark [4] stands for this setting: BRM degradation, SW1573 cells, when tested at the top concentration of between 0.3 and 10 μM, read-out: Dmax (%) (% degraded).

Like-named read-outs stand apart in the source and are kept apart here.

T1 sequence (P51531 whole entry): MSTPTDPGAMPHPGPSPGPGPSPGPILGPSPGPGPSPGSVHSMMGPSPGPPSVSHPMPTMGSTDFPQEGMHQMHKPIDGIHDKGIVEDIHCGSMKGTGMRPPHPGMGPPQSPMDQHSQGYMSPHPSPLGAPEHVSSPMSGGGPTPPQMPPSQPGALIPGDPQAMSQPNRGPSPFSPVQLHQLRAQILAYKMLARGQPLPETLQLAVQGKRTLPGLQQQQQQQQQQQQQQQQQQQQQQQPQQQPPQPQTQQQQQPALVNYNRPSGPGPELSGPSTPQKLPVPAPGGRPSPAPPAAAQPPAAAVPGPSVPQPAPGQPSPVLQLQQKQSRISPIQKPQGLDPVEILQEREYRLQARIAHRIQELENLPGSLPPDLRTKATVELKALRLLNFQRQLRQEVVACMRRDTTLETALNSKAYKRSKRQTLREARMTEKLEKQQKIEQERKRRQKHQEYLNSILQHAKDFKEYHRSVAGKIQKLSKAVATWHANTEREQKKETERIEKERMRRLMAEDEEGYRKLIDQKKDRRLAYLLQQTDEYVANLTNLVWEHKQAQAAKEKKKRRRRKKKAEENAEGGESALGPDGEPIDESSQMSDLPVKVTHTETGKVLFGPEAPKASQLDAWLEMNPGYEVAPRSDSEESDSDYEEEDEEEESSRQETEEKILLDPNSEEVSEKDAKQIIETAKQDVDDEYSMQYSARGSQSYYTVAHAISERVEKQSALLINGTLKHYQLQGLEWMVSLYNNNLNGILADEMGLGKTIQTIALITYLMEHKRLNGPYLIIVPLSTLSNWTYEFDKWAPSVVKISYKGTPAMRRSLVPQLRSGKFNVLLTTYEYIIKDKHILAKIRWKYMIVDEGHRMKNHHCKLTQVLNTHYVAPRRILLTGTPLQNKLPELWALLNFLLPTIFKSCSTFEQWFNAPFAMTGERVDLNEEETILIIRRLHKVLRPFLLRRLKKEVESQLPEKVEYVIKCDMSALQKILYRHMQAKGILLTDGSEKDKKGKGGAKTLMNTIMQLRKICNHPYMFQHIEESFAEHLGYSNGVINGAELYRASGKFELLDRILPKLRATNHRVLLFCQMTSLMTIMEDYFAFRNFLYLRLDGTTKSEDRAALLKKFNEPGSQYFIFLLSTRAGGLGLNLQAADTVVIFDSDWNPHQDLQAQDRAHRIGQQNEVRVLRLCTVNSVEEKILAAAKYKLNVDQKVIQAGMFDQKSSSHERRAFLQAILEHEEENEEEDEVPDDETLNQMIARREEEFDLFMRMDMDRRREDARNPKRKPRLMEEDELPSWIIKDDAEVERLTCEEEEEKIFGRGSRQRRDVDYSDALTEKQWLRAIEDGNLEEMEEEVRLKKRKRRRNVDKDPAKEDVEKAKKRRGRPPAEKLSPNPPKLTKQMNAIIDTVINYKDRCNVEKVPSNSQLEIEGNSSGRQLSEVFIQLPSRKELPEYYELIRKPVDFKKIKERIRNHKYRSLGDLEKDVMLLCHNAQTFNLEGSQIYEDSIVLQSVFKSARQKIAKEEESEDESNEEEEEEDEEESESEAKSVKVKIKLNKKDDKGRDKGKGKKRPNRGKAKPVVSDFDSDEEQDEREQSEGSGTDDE

As to `Cc1ncsc1-c1ccc([C@H](C)NC(=O)[C@@H]2C[C@@H](O)CN2C(=O)[C@@H](c2onc(OCCN3CCC(O[C@H]4C[C@H](Oc5cc(N6C7CCC6CN(c6cc(-c8ccccc8O)nnc6N)C7)ccn5)C4)CC3)c2F)C(C)C)cn1` [compound 270, (2S,4R)-1-((2R)-2-(3-(2-(4-((1r,3R)-3-((4-(3-(3-amino-6-(2-hydroxyphenyl)pyridazin-4-yl)-3,8-diazabicyclo[3.2.1]octan-8-yl)pyridin-2-yl)oxy)cyclobutoxy)piperidin-1-yl)ethoxy)-4-fluoroisoxazol-5-yl)-3-methylbutanoyl)-4-hydroxy-N-((S)-1-(6-(4-methylthiazol-5-yl)pyridin-3-yl)ethyl)pyrrolidine-2-carboxamide], the 50% degradation concentration (DC50) under setting [1] was < 2.5 nM. The Dmax under setting [2] is > 75%.

Consider `Cc1ncsc1-c1ccc([C@@H](NC(=O)[C@@H]2C[C@@H](O)CN2C(=O)[C@@H](c2cc(OCCN3CCC(O[C@H]4C[C@H](Oc5cc(N6C7CCC6CN(c6cc(-c8ccccc8O)nnc6N)C7)ccn5)C4)CC3)no2)C(C)C)C(F)F)cc1` [compound 268, (2S,4R)-1-((2R)-2-(3-(2-(4-((1r,3R)-3-((4-(3-(3-amino-6-(2-hydroxyphenyl)pyridazin-4-yl)-3,8-diazabicyclo[3.2.1]octan-8-yl)pyridin-2-yl)oxy)cyclobutoxy)piperidin-1-yl)ethoxy)isoxazol-5-yl)-3-methylbutanoyl)-N-((R)-2,2-difluoro-1-(4-(4-methylthiazol-5-yl)phenyl)ethyl)-4-hydroxypyrrolidine-2-carboxamide], for which the 50% degradation concentration (DC50) under setting [1] was < 2.5 nM. For the same compound, under setting [2], the greatest degradation seen (Dmax) is > 75%.

`Cc1ncsc1-c1cc(F)c([C@H](C)NC(=O)[C@@H]2C[C@@H](O)CN2C(=O)[C@@H](c2cc(N3CCC(CN4CCC(O[C@H]5C[C@H](Oc6cc(N7C8CCC7CN(c7cc(-c9ccccc9O)nnc7N)C8)ccn6)C5)CC4)CC3)no2)C(C)C)cc1F` [compound 681, (2S,4R)-1-((2R)-2-(3-(4-((4-((1r,3r)-3-((4-(3-(3-amino-6-(2-hydroxyphenyl)pyridazin-4-yl)-3,8-diazabicyclo[3.2.1]octan-8-yl)pyridin-2-yl)oxy)cyclobutoxy)piperidin-1-yl)methyl)piperidin-1-yl)isoxazol-5-yl)-3-methylbutanoyl)-N-((S)-1-(2,5-difluoro-4-(4-methylthiazol-5-yl)phenyl)ethyl)-4-hydroxypyrrolidine-2-carboxamide]: the DC50 under setting [1] is < 2.5 nM. The Dmax (BRM degradation, SW1573 cells, read-out: Dmax (% degraded)) was > 75%.

On to `Cc1cc([C@@H](C(=O)N2C[C@H](O)C[C@H]2C(=O)N[C@@H](C)c2ccc(-c3scnc3C)cc2)[C@H](C)COCCCCN2C3CCC2CN(c2cc(-c4ccccc4O)nnc2N)C3)on1` [compound 424, (2S,4R)-1-((2S,3S)-4-(4-(3-(3-amino-6-(2-hydroxyphenyl)pyridazin-4-yl)-3,8-diazabicyclo[3.2.1]octan-8-yl)butoxy)-3-methyl-2-(3-methylisoxazol-5-yl)butanoyl)-4-hydroxy-N-((S)-1-(4-(4-methylthiazol-5-yl)phenyl)ethyl)pyrrolidine-2-carboxamide], for which, under setting [3], the 50% degradation concentration (DC50) is > 30 nM.

As to `Cc1ncsc1-c1ccc([C@H](C)NC(=O)[C@@H]2C[C@@H](O)CN2C(=O)[C@H](c2cc(N3CCN(CC4CCN(C[C@H]5C[C@H](Oc6cc(N7C8CCC7CN(c7cc(-c9ccccc9O)nnc7N)C8)ccn6)C5)CC4)CC3)no2)C(C)C)cn1` [compound 426, (2S,4R)-1-((2S)-2-(3-(4-((1-(((11,3r)-3-((4-(3-(3-amino-6-(2-hydroxyphenyl)pyridazin-4-yl)-3,8-diazabicyclo[3.2.1]octan-8-yl)pyridin-2-yl)oxy)cyclobutyl)methyl)piperidin-4-yl)methyl)piperazin-1-yl)isoxazol-5-yl)-3-methylbutanoyl)-4-hydroxy-N-((S)-1-(6-(4-methylthiazol-5-yl)pyridin-3-yl)ethyl)pyrrolidine-2-carboxamide], the 50% degradation concentration (DC50) under setting [3] was > 30 nM.

In the case of `Cc1ncsc1-c1ccc([C@H](NC(=O)[C@@H]2C[C@@H](O)CN2C(=O)[C@@H](c2cc(OCCN3CCC(O[C@H]4C[C@H](Oc5cc(N6C7CCC6CN(c6cc(-c8ccccc8O)nnc6N)C7)ccn5)C4)CC3)no2)C(C)C)C(F)F)cn1` [compound 243, (2S,4R)-1-((2R)-2-(3-(2-(4-((1r,3R)-3-((4-(3-(3-amino-6-(2-hydroxyphenyl)pyridazin-4-yl)-3,8-diazabicyclo[3.2.1]octan-8-yl)pyridin-2-yl)oxy)cyclobutoxy)piperidin-1-yl)ethoxy)isoxazol-5-yl)-3-methylbutanoyl)-N-((S)-2,2-difluoro-1-(6-(4-methylthiazol-5-yl)pyridin-3-yl)ethyl)-4-hydroxypyrrolidine-2-carboxamide], the 50% degradation concentration (DC50) under setting [1] was < 2.5 nM. Moreover, the maximal degradation (Dmax) under setting [2] was > 75%.

On to `Cc1ncsc1-c1ccc(CNC(=O)[C@@H]2C[C@@H](O)CN2C(=O)[C@@H](NC(=O)COCCOCCOCCOCCCc2cc(N3C4CCC3CN(c3cc(-c5ccccc5O)nnc3N)C4)ccn2)C(C)(C)C)cc1` [compound 53, (2S,4R)-1-((S)-18-(4-(3-(3-amino-6-(2-hydroxyphenyl)pyridazin-4-yl)-3,8-diaza-bicyclo[3.2.1]octan-8-yl)pyridin-2-yl)-2-tert-butyl-4-oxo-6,9,12,15-tetraoxa-3-azaoctadecan-1-oyl)-4-hydroxy-N-(4-(4-methylthiazol-5-yl)benzyl)pyrrolidine-2-carboxamide], for which, under setting [1], the DC50 lay in the range of 2.5 to 10 nM. Besides, the greatest degradation seen (Dmax) under setting [4] is > 75%.

On to `Cc1ncsc1-c1ccc(C(CCCP(=O)(O)O)NC(=O)[C@@H]2C[C@@H](O)CN2C(=O)[C@H](c2cc(OCCN3CCC(O[C@H]4C[C@H](Oc5cc(N6C7CCC6CN(c6cc(-c8ccccc8O)nnc6N)C7)ccn5)C4)CC3)no2)C(C)C)cc1` (stereo partly drawn) [compound 701, (4-((2S,4R)-1-((2S)-2-(3-(2-(4-((1r,3S)-3-((4-(3-(3-amino-6-(2-hydroxyphenyl)pyridazin-4-yl)-3,8-diazabicyclo[3.2.1]octan-8-yl)pyridin-2-yl)oxy)cyclobutoxy)piperidin-1-yl)ethoxy)isoxazol-5-yl)-3-methylbutanoyl)-4-hydroxypyrrolidine-2-carboxamido)-4-(4-(4-methylthiazol-5-yl)phenyl)butyl)phosphonic acid], for which, for the setting “BRM degradation, SW1573 cells”, the DC50 is > 30 nM.

Turning to `Cc1ncsc1-c1ccc([C@@H](CCCC(=O)O)NC(=O)[C@@H]2C[C@@H](O)CN2C(=O)C(c2cc(OCCN3CCC(O[C@H]4C[C@H](Oc5cc(N6C7CCC6CN(c6cc(-c8ccccc8O)nnc6N)C7)ccn5)C4)CC3)no2)C(C)C)cc1` (stereo partly drawn) [compound 686, (5R)-5-((2S,4R)-1-(2-(3-(2-(4-((1r,3r)-3-((4-(3-(3-amino-6-(2-hydroxyphenyl)pyridazin-4-yl)-3,8-diazabicyclo[3.2.1]octan-8-yl)pyridin-2-yl)oxy)cyclobutoxy)piperidin-1-yl)ethoxy)isoxazol-5-yl)-3-methylbutanoyl)-4-hydroxypyrrolidine-2-carboxamido)-5-(4-(4-methylthiazol-5-yl)phenyl)pentanoic acid], the DC50 under setting [1] is > 30 nM.

With `Cc1ncsc1-c1ccc([C@H](C)NC(=O)[C@@H]2C[C@@H](O)CN2C(=O)[C@@H](c2cc(N3CCN(CCN4CCC(C(C)n5cc(-c6cc(-c7ccccc7O)nnc6N)cn5)CC4)CC3)no2)C(C)C)cc1` (stereo partly drawn) [compound 591, (2S,4R)-1-((2R)-2-(3-(4-(2-(4-(1-(4-(3-amino-6-(2-hydroxyphenyl)pyridazin-4-yl)-1H-pyrazol-1-yl)ethyl)piperidin-1-yl)ethyl)piperazin-1-yl)isoxazol-5-yl)-3-methylbutanoyl)-4-hydroxy-N-((S)-1-(4-(4-methylthiazol-5-yl)phenyl)ethyl)pyrrolidine-2-carboxamide], the Dmax (BRM degradation, SW1573 cells, Table 2D, read-out: **Dmax (%) (% degraded)) was > 75%. For the same compound, the DC50 (BRM degradation, SW1573 cells, Table 2D, read-out: *DC50) was < 2.5 nM.

Consider `Cc1ncsc1-c1ccc([C@H](C)NC(=O)[C@@H]2C[C@@H](O)CN2C(=O)[C@@H](c2onc(OCCN3CCN(CCOc4cc(N5C6CCC5CN(c5cc(-c7ccccc7O)nnc5N)C6)ccn4)CC3)c2F)C(C)C)cc1` [compound 114, (2S,4R)-1-((2R)-2-(3-(2-(4-(2-((4-(3-(3-amino-6-(2-hydroxyphenyl)pyridazin-4-yl)-3,8-diazabicyclo[3.2.1]octan-8-yl)pyridin-2-yl)oxy)ethyl)piperazin-1-yl)ethoxy)-4-fluoroisoxazol-5-yl)-3-methylbutanoyl)-4-hydroxy-N-((S)-1-(4-(4-methylthiazol-5-yl)phenyl)ethyl)pyrrolidine-2-carboxamide], for which, under setting [1], the 50% degradation concentration (DC50) is < 2.5 nM. The greatest degradation seen (Dmax) under setting [4] is > 75%.

Take `Cc1ncsc1-c1ccc([C@H](C)NC(=O)[C@@H]2C[C@@H](O)CN2C(=O)[C@@H](c2cc(OCCN3CCN(CCOc4cc(N5C6CCC5CN(c5cc(-c7ccccc7O)nnc5N)C6)ccn4)[C@@H](C)C3)no2)C(C)C)cc1` [compound 140, (2S,4R)-1-((2R)-2-(3-(2-((3S)-4-(2-((4-(3-(3-amino-6-(2-hydroxyphenyl)pyridazin-4-yl)-3,8-diazabicyclo[3.2.1]octan-8-yl)pyridin-2-yl)oxy)ethyl)-3-methylpiperazin-1-yl)ethoxy)isoxazol-5-yl)-3-methylbutanoyl)-4-hydroxy-N-((S)-1-(4-(4-methylthiazol-5-yl)phenyl)ethyl)pyrrolidine-2-carboxamide]: under setting [1], the 50% degradation concentration (DC50) is < 2.5 nM. Also, under setting [4], the maximal degradation (Dmax) is > 75%.
